# Laboratory results taken from ChEMBL document CHEMBL3885881, “DrugMatrix”.
# Organism: Rattus norvegicus
# Test: DrugMatrix - Regimen: Daily Repeat
# Type: toxicity, organism-based, Sprague-Dawley
# Design: regimen Daily Repeat, gender Male, age 6-8 weeks
# Details: in vivo, po, route oral GAVAGE, vehicle .5 % CMC; for ABSOLUTE BASOPHIL / ABSOLUTE EOSINOPHIL / ABSOLUTE LYMPHOCYTE / ABSOLUTE MONOCYTE / ABSOLUTE SEGMENTED NEUTROPHIL / BASOPHIL / EOSINOPHIL / ERYTHROCYTE COUNT / HEMATOCRIT / HEMOGLOBIN / LEUKOCYTE COUNT / LYMPHOCYTE / MEAN CORPUSCULAR HEMOGLOBIN / MEAN CORPUSCULAR HEMOGLOBIN CONCENTRATION / MEAN CORPUSCULAR VOLUME / MONOCYTE / NEUTROPHIL / NUCLEATED RED BLOOD CELLS / PLATELET COUNT: tissue Blood; for ALANINE AMINOTRANSFERASE / ALBUMIN / ALKALINE PHOSPHATASE / ASPARTATE AMINOTRANSFERASE / BLOOD UREA NITROGEN / CARBON DIOXIDE / CHLORIDE / CHOLESTEROL / CREATINE PHOSPHOKINASE / CREATININE / GLUCOSE / LACTATE DEHYDROGENASE / LIPASE / PHOSPHORUS / POTASSIUM / SODIUM / TOTAL BILIRUBIN / TOTAL PROTEIN / URIC ACID: tissue Plasma
# [1] = 10 mg/kg, 120 h, dose level Low, time 5 day
# [2] = 2500 mg/kg, 72 h, dose level High, time 3 day
# [3] = 2500 mg/kg, 120 h, dose level High, time 5 day
smiles,measurement,setting,value
O=C1CN=C(c2ccccc2Cl)c2cc([N+](=O)[O-])ccc2N1 [CLONAZEPAM],ABSOLUTE BASOPHIL,[1],0 CELLS/uL
same,ABSOLUTE EOSINOPHIL,[1],31 CELLS/uL
same,ABSOLUTE LYMPHOCYTE,[1],8153 CELLS/uL
same,ABSOLUTE MONOCYTE,[1],62 CELLS/uL
same,ABSOLUTE SEGMENTED NEUTROPHIL,[1],620.67 CELLS/uL
same,BASOPHIL,[1],0%
same,EOSINOPHIL,[1],0.33%
same,ERYTHROCYTE COUNT,[1],5.74 x10E6/uL
same,HEMATOCRIT,[1],35.3%
same,HEMOGLOBIN,[1],13.87 G/DL
same,LEUKOCYTE COUNT,[1],8.87 x10E3/uL
same,LYMPHOCYTE,[1],91.67%
same,MEAN CORPUSCULAR HEMOGLOBIN,[1],24.13 pg
same,MEAN CORPUSCULAR HEMOGLOBIN CONCENTRATION,[1],39.3 G/DL
same,MEAN CORPUSCULAR VOLUME,[1],61.43 fL
same,MONOCYTE,[1],0.67%
same,NEUTROPHIL,[1],7.33%
same,NUCLEATED RED BLOOD CELLS,[1],0 /100WBC
same,PLATELET COUNT,[1],1168 x10E3/uL
same,ALANINE AMINOTRANSFERASE,[1],54 u/L
same,ALBUMIN,[1],4.33 G/DL
same,ALKALINE PHOSPHATASE,[1],274.67 u/L
same,ASPARTATE AMINOTRANSFERASE,[1],97 u/L
same,BLOOD UREA NITROGEN,[1],18.67 mg/dL
same,CARBON DIOXIDE,[1],25.67 mmol/L
same,CHLORIDE,[1],98.67 MEQ/L
same,CHOLESTEROL,[1],75.33 mg/dL
same,CREATINE PHOSPHOKINASE,[1],826.67 u/L
same,CREATININE,[1],0.19 mg/dL
same,GLUCOSE,[1],177.67 mg/dL
same,LACTATE DEHYDROGENASE,[1],201 u/L
same,LIPASE,[1],10 u/L
same,PHOSPHORUS,[1],11.6 mg/dL
same,POTASSIUM,[1],5.92 MEQ/L
same,SODIUM,[1],138.97 MEQ/L
same,TOTAL BILIRUBIN,[1],0.13 mg/dL
same,TOTAL PROTEIN,[1],6.07 G/DL
same,URIC ACID,[1],1.63 mg/dL
same,ABSOLUTE BASOPHIL,[2],0 CELLS/uL
same,ABSOLUTE EOSINOPHIL,[2],0 CELLS/uL
same,ABSOLUTE LYMPHOCYTE,[2],8925.67 CELLS/uL
same,ABSOLUTE MONOCYTE,[2],256 CELLS/uL
same,ABSOLUTE SEGMENTED NEUTROPHIL,[2],1951.67 CELLS/uL
same,BASOPHIL,[2],0%
same,EOSINOPHIL,[2],0%
same,ERYTHROCYTE COUNT,[2],5.85 x10E6/uL
same,HEMATOCRIT,[2],36.6%
same,HEMOGLOBIN,[2],14.27 G/DL
same,LEUKOCYTE COUNT,[2],11.13 x10E3/uL
same,LYMPHOCYTE,[2],79%
same,MEAN CORPUSCULAR HEMOGLOBIN,[2],24.47 pg
same,MEAN CORPUSCULAR HEMOGLOBIN CONCENTRATION,[2],39.03 G/DL
same,MEAN CORPUSCULAR VOLUME,[2],62.67 fL
same,MONOCYTE,[2],2.33%
same,NEUTROPHIL,[2],18.67%
same,NUCLEATED RED BLOOD CELLS,[2],0.33 /100WBC
same,PLATELET COUNT,[2],1190 x10E3/uL
same,ALANINE AMINOTRANSFERASE,[2],88.33 u/L
same,ALBUMIN,[2],3.97 G/DL
same,ALKALINE PHOSPHATASE,[2],322 u/L
same,ASPARTATE AMINOTRANSFERASE,[2],132 u/L
same,BLOOD UREA NITROGEN,[2],19.33 mg/dL
same,CARBON DIOXIDE,[2],31.33 mmol/L
same,CHLORIDE,[2],100.33 MEQ/L
same,CHOLESTEROL,[2],88.67 mg/dL
same,CREATINE PHOSPHOKINASE,[2],910.33 u/L
same,CREATININE,[2],0.49 mg/dL
same,GLUCOSE,[2],134.33 mg/dL
same,LACTATE DEHYDROGENASE,[2],213.67 u/L
same,LIPASE,[2],11.33 u/L
same,PHOSPHORUS,[2],13.77 mg/dL
same,POTASSIUM,[2],6.47 MEQ/L
same,SODIUM,[2],143.17 MEQ/L
same,TOTAL BILIRUBIN,[2],0.2 mg/dL
same,TOTAL PROTEIN,[2],5.7 G/DL
same,URIC ACID,[2],0.57 mg/dL
same,ABSOLUTE BASOPHIL,[3],0 CELLS/uL
same,ABSOLUTE EOSINOPHIL,[3],0 CELLS/uL
same,ABSOLUTE LYMPHOCYTE,[3],10757.67 CELLS/uL
same,ABSOLUTE MONOCYTE,[3],124 CELLS/uL
same,ABSOLUTE SEGMENTED NEUTROPHIL,[3],1618.33 CELLS/uL
same,BASOPHIL,[3],0%
same,EOSINOPHIL,[3],0%
same,ERYTHROCYTE COUNT,[3],5.66 x10E6/uL
same,HEMATOCRIT,[3],34.97%
same,HEMOGLOBIN,[3],14.27 G/DL
same,LEUKOCYTE COUNT,[3],12.5 x10E3/uL
same,LYMPHOCYTE,[3],85.67%
same,MEAN CORPUSCULAR HEMOGLOBIN,[3],25.23 pg
same,MEAN CORPUSCULAR HEMOGLOBIN CONCENTRATION,[3],40.83 G/DL
same,MEAN CORPUSCULAR VOLUME,[3],61.8 fL
same,MONOCYTE,[3],1%
same,NEUTROPHIL,[3],13.33%
same,NUCLEATED RED BLOOD CELLS,[3],0 /100WBC
same,PLATELET COUNT,[3],964.33 x10E3/uL
same,ALANINE AMINOTRANSFERASE,[3],84 u/L
same,ALBUMIN,[3],3.93 G/DL
same,ALKALINE PHOSPHATASE,[3],331.67 u/L
same,ASPARTATE AMINOTRANSFERASE,[3],114 u/L
same,BLOOD UREA NITROGEN,[3],19 mg/dL
same,CARBON DIOXIDE,[3],27 mmol/L
same,CHLORIDE,[3],102.33 MEQ/L
same,CHOLESTEROL,[3],93 mg/dL
same,CREATINE PHOSPHOKINASE,[3],261 u/L
same,CREATININE,[3],0.2 mg/dL
same,GLUCOSE,[3],136.67 mg/dL
same,LACTATE DEHYDROGENASE,[3],217.67 u/L
same,LIPASE,[3],10.33 u/L
same,PHOSPHORUS,[3],9.8 mg/dL
same,POTASSIUM,[3],5.43 MEQ/L
same,SODIUM,[3],142.37 MEQ/L
same,TOTAL BILIRUBIN,[3],0.2 mg/dL
same,TOTAL PROTEIN,[3],5.73 G/DL
same,URIC ACID,[3],1.13 mg/dL
